Data published in US10001483B2, “Methods for the treatment of Kaposi's sarcoma or KSHV-induced lymphoma using immunomodulatory compounds, and uses of biomarkers” (Celgene Corporation, priority 2015, dated 2018).
Marks after values point to notes of the source that are not given here.

Key:
[1] = Pharmacokinetic studies: plasma concentrations of pomalidomide in KS patients (HPLC with fluorescence detection); type: in vivo, human
Method: A non-compartmental analysis was used to calculate plasma pharmacokinetic parameters (Pharsight Corp, Mountain View, Calif.). The maximum plasma concentration (CMAX) and time to CMAX (TMAX) were recorded as observed values; the area under the plasma concentration vs time curve (AUC) was calculated using the log-linear trapezoidal method. For day 1 of cycle 1 (C1D1), the AUC extrapolated to infinity (AUCINF) was used, unless the percent extrapolated exceeded 25%, in which case AUCLAST (to the last quantifiable time point) was used. The steady-state exposure on C1D15 was calculated using AUCLAST.
Pharmacokinetic Studies were performed pre-dose on cycle 1 day 1 and day 15. Across all analyzed doses: TMAX=2.71±1.73 hrs, T1/2=7.10±2.48 hours, and CMAX=61.21±29.30 ng/mL. […] Comparing HIV infected with non-infected subjects, for CMAX at C1D1 p=0.45, at C1D15 p=0.80 at C1D15 and comparing changes from baseline p=0.91; for AUCLAST at C1D1, p=0.63; at C1D15 p=0.97 and comparing changes from baseline p=0.91.

HIV-1 = experiment: Plasma HIV viral load by ultrasensitive single copy assay; type: in vivo
Method: (§1) Aspirin at 81 mg daily was administered as thromboprophylaxis. Assessments were performed every 4 weeks for lymphocyte numbers, Kaposi sarcoma associated herpesvirus (KSHV/HHV8) viral load (VL) and HIV VL and at 8 weeks for T cell subsets and activation by immunophenotyping of peripheral blood mononuclear cells (PBMC). KSHV VL in PBMC and HIV VL in plasma were assayed by quantitative PCR; an ultrasensitive single copy assay was used for HIV VL. Changes from baseline were evaluated using the Wilcoxon signed rank test with P<0.005 considered significant given multiple comparisons. Differences in changes between the HIV infected and uninfected groups were evaluated using the Wilcoxon rank sum test. Median time of the patients on therapy 7 cycles (range 2-12).
Laboratory Assays: Lymphocyte subsets were assessed by fluorescent-activated cell sorting using the BlueOcean platform (Beckman Coulter, Carlsbad, Calif.). Plasma HIV-1 […] was evaluated using an ultrasensitive assay whose sensitivity was 1 viral copy per plasma volume. Briefly, a triplex PCR was used using a modification of a previously reported assay with three primers: one spanning the start codon of gag, one in the gag coding region, and one internal control. Samples were tested from 6 mL plasma aliquots, with 12 replicants per sample. KSHV VL in peripheral blood mononuclear cells (PBMC) was assessed by quantitative real-time PCR.
Changes in immunologic and virologic parameters were evaluated by a Wilcoxon signed rank test. Exact Wilcoxon rank sum tests were used to compare pharmacokinetic parameters at each time point and differences from baseline. All p-values are two-tailed and reported without adjustment for multiple comparisons. HRQL was analyzed using a using a mixed model repeated measures analysis for FAHI and the marginal homogeneity test for KS-specific questions

[2] = Safety and tolerability of pomalidomide in KS patients; type: in vivo, human
Method: as §1
Subsequent cycles commenced on day 29. In certain cases cycles were commenced when ANC was ≥1000 cells/mm3, hemoglobin≥10 g/dL, platelets≥50,000 cells/mm3 and otherwise held until these thresholds were met. […] HIV-infected patients continued baseline ART without adjustment. Prophylaxis for opportunistic infections including Pneumocystis jiroveci was administered following current guidelines.

Kaposi sarcoma = experiment: Clinical study of pomalidomide in Kaposi sarcoma patients with and without HIV: KS responses by modified ACTG criteria; type: in vivo, human
Method: Enrollment: 22 patients (15 HIV positive and 7 HIV negative) median age 52 years (range 32-74) were studied. All patients with HIV were receiving antiretroviral therapy (ART) for median 48 months (7-227), HIV VL<50 copies/mL (all), and CD4 count 378 cells/μl (135-752). […] All were evaluable for response.
as §1
Kaposi sarcoma responses: KS responses were evaluated every cycle and categorized as complete (CR), partial (PR), stable disease (SD), or progressive disease (PD) using modified ACTG criteria. To be evaluable for response, patients completed at least two cycles of therapy. Evaluations included lesion counts, measurement of the sum product of the diameters of five indicator lesions, assessment of nodularity, and measurement of limb circumference if tumor-associated edema was present. PR was considered as at least 50% decrease in number of lesions and/or sum product of the diameters of marker lesions and/or nodularity of lesions, and no new lesions in previously uninvolved areas nor criteria for PD. CR was considered as clinical resolution of all lesions and tumor-associated phenomenon, with biopsy confirmation. Both CR and PR had to be sustained for 4 weeks. Best response was evaluated for each patient.
Complete and partial responses are objective tumor responses by modified AIDS Clinical Trial Group Criteria for KS. Complete response also requires pathological confirmation. Individual responses are shown in FIG. 1A (maximal change in number of nodular lesions) and FIG. 1B (maximal change in total number of lesions). No decrease in quality of life during therapy was reported by patient. Improved satisfaction with appearance was reported by patients. […] This includes objective responses in patients previously refractory to standard cytotoxic therapy and in patients who have previously received other immunomodulatory drugs (e.g., thalidomide, lenalidomide, or both).
HIV infected and uninfected cohorts were evaluated separately and combined. The unacceptable ORR for further development was defined as 10% and a desirable (targeted) ORR as 40%. Up to 10 HIV negative patients were to be enrolled, with the goal of […]; that would have 83.3% probability of occurring if the true ORR were 40% and 7.0% probability of occurring if the true ORR were 10%. Up to 15 HIV positive patients were to be enrolled, with the goal of […]; that would have 90.9% probability of occurring if the true ORR were 40% and 5.6% probability of occurring if the true ORR were 10%.

[3] = human, po, plasma, across all analyzed doses, cycle 1 day 1 and day 15, 5 mg orally
[4] = restricted to the 15 HIV positive subjects, paired data for 10-13 patients
[5] = 5 mg per day for 21 days of 28 day cycles
[6] = Combined, 22 assessable, patients (%), 5 mg per day orally 21 of 28 days
[7] = HIV negative, 7 assessable, patients (%)
[8] = HIV positive, 15 assessable, patients (%)

## Nc1cccc2c1C(=O)N(C1CCC(=O)NC1=O)C2=O (centres unmarked) [pomalidomide, 4-amino-2-(2,6-dioxopiperidin-3-yl)isoindoline-1,3-dione]
[1]; from day 1 to day 15
  accumulation: No evidence of accumulation
[1]; human, in vivo
  differences in pharmacokinetics by ART regimen: No significant differences
  differences in pharmacokinetics by HIV status: No significant differences
[1]; [3]
  Tmax: 2.71 ± 1.73 h
  half-life: 7.1 ± 2.48 h
[1]; plasma, across all analyzed doses, cycle 1 day 1 and day 15, 5 mg orally
  Cmax: 61.21 ± 29.30 ng/mL
HIV-1; plasma, ultrasensitive single copy assay
  HIV VL: no significant change
HIV-1; [4]
  Plasma HIV VL (copies/mL) Change to End Therapy (Med, range): −0.5 copies/mL
  Plasma HIV VL (copies/mL) Change to Week 8 (Med, range): +0.75 copies/mL
HIV-1; restricted to the 15 HIV positive subjects, paired data for 10-13 patients, baseline 1.5
  Plasma HIV VL (copies/mL) Change to Week 4 (Med, range): +0.3 copies/mL
[2]; [5]
  adverse events, severity: generally mild, self limited, or reversible following therapy
  dose limiting events: No dose limiting events
[2]; both cohorts
  tolerability: well tolerated
[2]; exacerbation of pre-existing anxiety
  cessation of therapy for adverse effect: One subject ceased therapy for adverse effect
[2]; generally mild and self-limited, or resolved following cessation of therapy
  common adverse events: neutropenia, constipation, anemia not requiring transfusion, fatigue, and rash
[2]; with aspirin 81 mg daily thromboprophylaxis
  unplanned hospitalizations, febrile neutropenia, thromboembolic events: No unplanned hospitalizations, no febrile neutropenia, and no thromboembolic events
Kaposi sarcoma; 5 mg for 21 of 28 days
  response in HIV-uninfected subjects: all HIV-uninfected subjects responded
Kaposi sarcoma; 5 mg for 21 of 28 days, symptomatic KS regardless of HIV status
  overall response rate: 73%
Kaposi sarcoma; 10 of 17 subjects with edema
  subjects with edema having evidence of improvement in tumor-associated edema: 59%
Kaposi sarcoma; [6]
  Complete Response (CR): 4 (18%)
  Partial Response (PR): 12 (55%)
  Progressive Disease (PD): 3 (14%)
Kaposi sarcoma; Combined, 22 assessable, patients (%), 5 mg per day orally 21 days of 28 day cycles
  Overall Response (CR + PR): 16 (73%)
Kaposi sarcoma; Combined, range (4-36)
  Time to Response: 4 weeks
Kaposi sarcoma; HIV negative, 7 assessable, patients
  Progressive Disease (PD): 0
Kaposi sarcoma; [7]
  Complete Response (CR): 1 (14%)
  Partial Response (PR): 6 (86%)
Kaposi sarcoma; HIV negative, 7 assessable, patients (%), 5 mg per day orally 21 of 28 days
  Overall Response (CR + PR): 7 (100%)
Kaposi sarcoma; HIV negative, range (4-36)
  Time to Response: 4 weeks
Kaposi sarcoma; [8]
  Complete Response (CR): 3 (20%)
  Partial Response (PR): 6 (40%)
Kaposi sarcoma; HIV positive, 15 assessable, patients (%), 5 mg per day orally 21 of 28 days
  Overall Response (CR + PR): 9 (60%)
Kaposi sarcoma; HIV positive, 15 assessable, patients (%), includes one subject non-adherent to ART and protocol therapy
  Progressive Disease (PD): 3 (20%)*
Kaposi sarcoma; HIV positive, range (4-32)
  Time to Response: 8 weeks
Kaposi sarcoma; including patients refractory to cytotoxic therapy or previously given other immunomodulatory drugs
  KS responses, character: responses were generally rapid, were linked to improved self reported outcomes, and occurred even in advanced and heavily pretreated KS
Kaposi sarcoma; number of subjects, of 17 with edema
  subjects in whom limb circumference showed at least a 2 cm reduction with therapy: 8
Kaposi sarcoma; one patient, after 4 weeks, FIG. 10B
  representative response of a left great toe lesion: complete flattening of the lesion
Kaposi sarcoma; same patient, 24 weeks, FIG. 10C
  representative response of a left great toe lesion: complete resolution of the lesion and a complete pathological response
